Reference: PMC6009956, “Design, synthesis and biological activity of N^4-phenylsubstituted-7H-pyrrolo[2,3-d]pyrimidin-4-amines as dual inhibitors of aurora kinase A and epidermal growth factor receptor kinase” (Journal of Enzyme Inhibition and Medicinal Chemistry, 2017)
Like-named read-outs stand apart in the source and are kept apart here.

Tests used:
CAL cells = experiment: Proliferation (cell counting), CAL; type: cell-based; settings: 100 µM
Experimental: (§1) FADU, BHY, SAS and CAL cell lines were obtained from ATCC-LGC and were cultured in DMEM (Invitrogen, Germany) supplemented with 10% of heat activated bovine serum (FBS, PAA, Germany), 1% of glutamine, 1% of penicillin-streptomycin (Invitrogen, Germany). To measure proliferation, SCCHN cells were split, reseeded (5 × 10^5 in 25 cm^2 flasks) and counted at the indicated time points. Cells were then replated at the initial density. The fold increase in cell number was calculated, all given results are based on triplicate experiments. To assess cell death 5 × 10^5 cells were stained with propidium iodide (PI, Sigma, Germany). Following incubation, cells were washed, resuspended in PBS, and analysed by flow cytometry. The fraction of PI-positive cells is reported as dead cell fraction.
(§2) Figure 3. […] Cells were incubated with compound 2 for 48 h and then subjected to PI staining and FACS analysis. PI-positive cell fraction as measure of cell death is reported. (B) Four SCCHN cell lines were incubated with 100 μM of compound 2 and counted on the indicated days. Experiments in triplicates, fold growth shown. (C) EGFR expression of SCCHN cell lines. EGFR high and low as detected by western blot analysis (D) The SCCHN cell lines were incubated with 100 μM of compound 2 for 72 h. Percent PI positive cells are given. Experiments in triplicates.

FADU cells = experiment: Cell killing, PI staining and FACS, FADU; type: cell-based
Experimental: as §1, §2

BHY cells = experiment: Cell killing, PI staining and FACS, BHY; type: cell-based
Experimental: as §1, §2

EGFR = EGFR (Homo sapiens, UniProt P00533); experiment: ADP-Glo kinase assay, EGFR; type: biochemical; set-up: purchased BPS Bioscience (assay run externally by the vendor)
[1] = system: EGFR (pEGFR, pERK, p-AKT) in BHY cells; experiment: Western blot of EGFR downstream targets in BHY cells; type: cell-based; settings: 100 μM
Experimental: (§3) Protein extracts (50 μg per lane) were electrophoretically separated on SDS-PAGE gels, transferred to membranes (Protran, Schleicher & Schuell, Dassel, Germany) and blotted with specific antibodies (actin, aurora A, aurora B: all from Sigma, Munich, Germany; S10-HH3: Millipore, Schwalbach, Germany; EGFR: Santa Cruz, Heidelberg, Germany; pEGFR: Invitrogen, Darmstadt, Germany; pAKT, pERK: both from New England Biolabs, Frankfurt, Germany).
(§4) Figure 4. Effects of compound 2 on EGFR and aurora kinases in growing SCCHN cell lines (A) Western blot analysis of EGFR (pEGFR, pERK, p-AKT) and aurora A (p-HH3) downstream target proteins following incubation with 100 μM compound 2 for the indicated time points in BHY and FADU SCCHN cell lines. (B) BHY and CAL cell lines treated for the indicated time points with 200 nM cetuximab. Western blot analysis of EGFR downstream targets. (long exposure and short exposure). […] Western blot analysis of p-HH3 at the indicated time points. Asterisk (*) represents unspecific band.

[2] = system: Phosphorylated histone H3 (p-HH3) in BHY and FADU SCCHN cell lines; experiment: Western blot of p-HH3 in BHY and FADU cells; type: cell-based; settings: 100 μM
Experimental: as §3, §4

FADU and BHY cell lines = experiment: Cell cycle analysis (PI, flow cytometry); type: cell-based; settings: 100 μM, 24 and 48 h; more pronounced in BHY
Experimental: For analysis of cell cycle distribution, cells were fixed with 70% of ethanol and stained with PI. Flow cytometric analysis of DNA content was performed using PI in the FL2 chanel in linear mode. Cells with less than diploid DNA content were considered dead (sub-G1).
Figure 5. Cell cycle analysis of FADU and BHY cell lines incubated for 24 and 48 h with 100 μM of compound 2. Cell cycle distribution according to PI uptake, shown is the cell fraction subG1 for cell death and in G1, S and G2M phase of the cell cycle. n = 3, * p < .01, ** p < .001.

AURKB = biological target: T1, AURKB (Homo sapiens, UniProt Q96GD4); experiment: DiscoverX competition binding assay, AURKB; settings: read-out: Binding constant (Kd) AURKB
T1 construct: purchased DiscoverX Corporation (assay run externally by the vendor)
Experimental: The assay was performed externally at DiscoverX Corporation using a competition binding assay that quantitatively measures the ability of a compound to compete with an immobilised, active-site directed ligand[24]. The assay is performed by combining three components: DNA-tagged kinase, immobilised ligand and a test compound. The ability of the test compound to compete with the immobilised ligand was measured via quantitative PCR of the DNA tag. An 11-point 3-fold serial dilution of each test compound was prepared in 100% of DMSO at 100× final test concentration and subsequently diluted to 1× in the assay (final DMSO concentration = 1%). […] Binding constants (Kd) were calculated with a standard dose-response curve using the Hill equation.
Binding Affinities for EGFR, AURKA and AURKB
The assay was performed externally at DiscoverX Corporation using a competition binding assay that quantitatively measures the ability of a compound to compete with an immobilized, active-site directed ligand for target kinases AURKA, AURKB and EGFR.23 The assay is performed by combining three components: DNA-tagged kinase; immobilized ligand; and a test compound. The ability of the test compound to compete with the immobilized ligand was measured via quantitative PCR of the DNA tag. […] Compound Kds were determined using a compound top […]

SAS cells = experiment: Proliferation (cell counting), SAS; type: cell-based; settings: 100 µM
Experimental: as §1, §2

Chain of EGFR (P00533 25-1210): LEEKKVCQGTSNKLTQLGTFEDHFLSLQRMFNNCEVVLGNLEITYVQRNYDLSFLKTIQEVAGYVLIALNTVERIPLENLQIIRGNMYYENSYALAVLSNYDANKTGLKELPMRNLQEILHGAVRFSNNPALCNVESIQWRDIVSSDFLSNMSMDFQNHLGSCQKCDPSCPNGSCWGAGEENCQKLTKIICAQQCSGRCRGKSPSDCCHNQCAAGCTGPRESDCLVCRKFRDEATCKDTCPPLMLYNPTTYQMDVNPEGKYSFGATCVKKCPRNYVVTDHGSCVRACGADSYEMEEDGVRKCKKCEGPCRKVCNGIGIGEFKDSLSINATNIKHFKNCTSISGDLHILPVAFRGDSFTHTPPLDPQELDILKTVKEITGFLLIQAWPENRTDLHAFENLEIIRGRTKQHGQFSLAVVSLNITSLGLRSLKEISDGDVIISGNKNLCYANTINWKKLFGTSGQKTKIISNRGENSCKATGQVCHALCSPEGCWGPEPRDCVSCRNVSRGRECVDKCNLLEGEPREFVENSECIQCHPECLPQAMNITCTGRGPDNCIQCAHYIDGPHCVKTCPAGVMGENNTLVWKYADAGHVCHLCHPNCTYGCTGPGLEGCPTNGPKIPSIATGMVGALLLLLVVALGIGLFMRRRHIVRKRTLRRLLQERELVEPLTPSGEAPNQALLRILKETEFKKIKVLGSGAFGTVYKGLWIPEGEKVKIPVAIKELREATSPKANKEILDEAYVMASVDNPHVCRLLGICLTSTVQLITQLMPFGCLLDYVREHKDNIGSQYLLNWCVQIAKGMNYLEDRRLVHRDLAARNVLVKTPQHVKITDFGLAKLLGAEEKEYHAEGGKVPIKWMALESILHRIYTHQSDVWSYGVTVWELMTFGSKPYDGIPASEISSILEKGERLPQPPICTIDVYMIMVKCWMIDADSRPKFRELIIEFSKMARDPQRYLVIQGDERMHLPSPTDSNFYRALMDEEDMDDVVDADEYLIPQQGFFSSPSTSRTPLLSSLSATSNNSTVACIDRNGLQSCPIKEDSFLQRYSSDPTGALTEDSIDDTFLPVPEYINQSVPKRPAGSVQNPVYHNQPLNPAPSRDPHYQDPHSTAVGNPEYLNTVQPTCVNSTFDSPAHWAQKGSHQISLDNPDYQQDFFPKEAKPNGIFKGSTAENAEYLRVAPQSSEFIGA
T1 sequence (Q96GD4 whole entry): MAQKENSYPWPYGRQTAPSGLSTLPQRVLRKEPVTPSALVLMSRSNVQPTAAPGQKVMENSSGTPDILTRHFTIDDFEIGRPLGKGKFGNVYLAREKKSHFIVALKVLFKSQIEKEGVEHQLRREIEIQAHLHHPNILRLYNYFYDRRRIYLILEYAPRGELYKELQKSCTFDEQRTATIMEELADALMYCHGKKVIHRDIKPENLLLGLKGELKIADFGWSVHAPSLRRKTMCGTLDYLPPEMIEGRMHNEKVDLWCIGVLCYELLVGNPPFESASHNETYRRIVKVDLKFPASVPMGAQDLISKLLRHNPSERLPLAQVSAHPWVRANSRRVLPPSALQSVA

Brc1cccc(Nc2ncnc3[nH]ccc23)c1 [Compound 2, N^4-(3-bromophenyl)-7H-pyrrolo[2,3-d]pyrimidine-4-amine]
Cell growth (fold growth) (CAL cells): completely inhibited cell growth | Cell killing (PI positive cells) (FADU cells; FADU, 100 µM, 72 h): efficient cell killing | IC50 (FADU cells; Homo sapiens, FaDu, 48 h, read-out: IC50 cellular killing (PI-positive fraction)): 150 µM | Cell killing (PI positive cells) (BHY cells; 100 µM, 72 h): efficient cell killing | IC50 (BHY cells; 48 h, read-out: IC50 cellular killing (PI-positive fraction)): 150 µM | EGFR inhibition (in words) (EGFR): single-digit nanomolar EGFR inhibition | IC50 (EGFR; 10 µM ATP, triplicate, read-out: EGFR IC50 ± SD): 0.00376 ± 0.00012 µM | IC50 (EGFR; 10 µM ATP/0.2 mg/ml Poly-Glu-Tyr, read-out: EGFR IC50 (dose-response curve, supplement)): 0.0038 µM | EGFR % Activity Set1 (EGFR; Log[nM] 0): 43% | EGFR % Activity Set2 (EGFR; Log[nM] 0): 41% | EGFR % Activity Set3 (EGFR; Log[nM] 0): 41% | EGFR % Activity Set1 (EGFR; Log[nM] 1.0): 29% | EGFR % Activity Set2 (EGFR; Log[nM] 1.0): 29% | EGFR % Activity Set3 (EGFR; Log[nM] 1.0): 28% | EGFR % Activity Set1 (EGFR; Log[nM] 1.5): 11% | EGFR % Activity Set2 (EGFR; Log[nM] 1.5): 9% | EGFR % Activity Set3 (EGFR; Log[nM] 1.5): 11% | EGFR % Activity Set1 (EGFR; Log[nM] 2.0): 6% | EGFR % Activity Set2 (EGFR; Log[nM] 2.0): 6% | EGFR % Activity Set3 (EGFR; Log[nM] 2.0): 6% | EGFR % Activity Set1 (EGFR; Log[nM] 2.5): 3% | EGFR % Activity Set2 (EGFR; Log[nM] 2.5): 2% | EGFR % Activity Set3 (EGFR; Log[nM] 2.5): 3% | EGFR % Activity Set1 (EGFR; Log[nM] 3.0): 1% | EGFR % Activity Set2 (EGFR; Log[nM] 3.0): 1% | EGFR % Activity Set3 (EGFR; Log[nM] 3.0): 1% | EGFR % Activity Set1 (EGFR; Log[nM] 3.5): 1% | EGFR % Activity Set2 (EGFR; Log[nM] 3.5): 1% | EGFR % Activity Set3 (EGFR; Log[nM] 3.5): 0% | EGFR % Activity Set1 (EGFR; Log[nM] 4.0): 0% | EGFR % Activity Set2 (EGFR; Log[nM] 4.0): 0% | EGFR % Activity Set3 (EGFR; Log[nM] 4.0): 0% | EGFR % Activity Set1 (EGFR; Log[nM] 4.5): 0% | EGFR % Activity Set2 (EGFR; Log[nM] 4.5): 0% | EGFR % Activity Set3 (EGFR; Log[nM] 4.5): 0% | EGFR % Activity Set1 (EGFR; Log[nM] 5.0): 0% | EGFR % Activity Set2 (EGFR; Log[nM] 5.0): 0% | EGFR % Activity Set3 (EGFR; Log[nM] 5.0): 0% | EGFR-mediated phosphorylation steps (pEGFR, pERK, p-AKT) [1]: modified | Effect on histone p-HH3 [2]: Modest effects | Cell cycle distribution (FADU and BHY cell lines): cell cycle arrest in G2M | Kd (AURKB): 4.8 µM | Cell growth (fold growth) (SAS cells): completely inhibited cell growth
